The first test has as its system ECS-Amnesie. The test can be described thus: Inhibitory (passive) avoidance test, reversal of amnesia induced by electroconvulsive shock. The format is in vivo, Mäusen. Particulars: Mus musculus, po, read-out: Inhibitory avoidance MED mg/kg p.o. ECS-Amnesie. An excerpt: Die Verbindungen der Formel I besitzen wertvolle pharmakologische Eigenschaften, insbesondere nootrope. Die nootrope Wirkung der erfindungsgemäßen Verbindungen wurde an Mäusen, die ein Köpergewicht von 20-25 g besaßen, im inhibitory (passive) avoidance test geprüft. Eine modifizierte Form der von J. Kopp, Z. Bodanecky und M.E. Jarvik beschriebenen Testmethode wurde von J. Bures, O. Buresova und J. Huston im "Techniques and Basic Experiments for the Study of Brain and Behavior", Elsevier Scientific Publishers, Amsterdam 1983, beschrieben.
Entsprechend diesen Literaturangaben wird eine Substanz dann als nootrop wirksam bezeichnet, wenn sie bei den Versuchstieren die mittels eines elektroconvulsiven Schocks erzeugte Amnesie (ECS-Amnesie) aufzuheben vermag.
Die Versuche wurden nach modifizierten Testmethoden mit den erfindungsgemäßen Verbindungen durchgeführt. Als Vergleichsverbindung diente das bekannte Nootropikum 2-Oxo-1-pyrrolidinylessigsäureamid (Piracetam). Die deutliche Überlegenheit der erfindungsgemäßen Verbindungen über die Vergleichssubstanz zeigte sich darin, daß der amnestische Effekt bereits mit einer MED (minimal effective dosis) von 0,1-10 mg/kg p.o. aufzuheben ist. Die Vergleichssubstanz hat eine MED von ca. 500-1000 mg/kg p.o..
With `O=C(O)CCc1ccc(NC(=O)CCN2CC=C(c3cccc(Cl)c3)CC2)cc1` [Beispiel 49, 3-{4-[3-(4-(3-Chlorphenyl)-1,2,5,6-tetrahydropyridino)-propionamido]-phenyl}-propionsäure], the minimal effective dose was 25 mg/kg.

In the case of `NC(=O)CN1CCCC1=O` [Piracetam, 2-Oxo-1-pyrrolidinylessigsäureamid, reference compound], the minimal effective dose worked out at 1000 mg/kg.

Staying with this test, now noted: Mus musculus, po, read-out: MED (minimal effective dosis).
With `NC(=O)CN1CCCC1=O` [Piracetam, 2-Oxo-1-pyrrolidinylessigsäureamid, reference compound], the minimal effective dose lay within 500 to 1000 mg/kg.

The same test, now with this note: Mus musculus; mice 20-25 g, oral; MED = minimal effective dosis reversing ECS-Amnesie; Table 1; read-out: Inhibitory avoidance MED mg/kg p.o. ECS-Amnesie.
Turning to `O=C(O)CCc1ccc(NC(=O)CCN2CCN(c3cccc(Cl)c3)CC2)cc1` [Beispiel 34, 3-{4-(3-(4-(3-Chlorphenyl)-piperazino)-propionamido]-phenyl}-propionsäure], the minimal effective dose is 1.6 mg/kg.

On to `O=C(O)C=Cc1ccc(NC(=O)CCN2CCN(c3cccc(Cl)c3)CC2)cc1` [Beispiel 35, 4-{3-[4-(3-Chlorphenyl)-piperazino]-propionamido}-zimtsäure], for which the minimal effective dose was 50 mg/kg.

`O=C(O)CCCc1ccc(NC(=O)CCN2CCC(c3ccccc3)CC2)cc1` [Beispiel 45, 4-{4-[3-(4-Phenylpiperidino)-propionamido]-phenyl}-buttersäure]: the minimal effective dose was 25 mg/kg.

Regarding `O=C(O)CCc1ccc(NC(=O)CCN2CCN(c3ccccc3)CC2)cc1` [Beispiel 46, 3-{4-[3-(4-Phenylpiperazino)-propionamido]-phenyl}-propionsäure], the minimal effective dose turned out to be 25 mg/kg.

`O=C(O)CCc1ccc(NC(=O)CCN2CCN(CCCc3ccccc3)CC2)cc1` [Beispiel 47, 3-{4-[3-(4-(3-Phenylpropyl)-piperazino)-propionamido]-phenyl}-propionsäure]: the minimal effective dose is 25 mg/kg.

Consider `O=C(O)CCc1ccc(NC(=O)CCNCCCc2ccccc2)cc1` [Beispiel 48, 3-{4-[3-(3-Phenylpropylamino)-propionamido]-phenyl}-propionsäure], for which the minimal effective dose was determined as 50 mg/kg.

Source of the values: EP0271099A2, “Substituted aminopropionic acid amides, process for their preparation, agents containing them and their use as well as the intermediates formed during the preparation” (HOECHST AKTIENGESELLSCHAFT, priority 1986, dated 1988).
